In patent US5069812A, “Bleach/builder precursors” (priority 1990, dated 1991):

Experiments:
[1] = Stain bleaching on tea-stained cotton (Terg-O-Tometer wash, reflectance change); conditions: 40° C., 15 minutes, BC1 cloth, pH = 9.0-9.5, [precursor] = 6.2 × 10^-4 M, [H2O2] = 6.25 × 10^-3 M; corrected for H2O2 and detergent alone
Description: Typically, cotton test pieces (4 in.×4 in.) stained with the tea are washed in a Terg-O-Tometer in 1 l. of aqueous solution containing a given level of bleach precursor, hydrogen peroxide, buffer, and surfactant (generally sodium dodecylbenzenesulfonate).
Washes are carried out at 40° C. for 15 minutes. Stain bleaching is measured reflectrometrically using a Colorgard System/05 Reflectometer. Bleaching is indicated by an increase in reflectance, reported as ΔR. In general a ΔR of one unit is perceivable in a paired comparison while ΔR of two units is perceivable monadically. In reporting the reflectance change, the change in reflectance caused by general detergency and bleaching by the excess hydrogen peroxide has been accounted for. Thus ΔR can actually be expressed as: ΔR=(the value of the Reflectance of stained fabric washed with precursor, H2 O2 and detergent minus the value of the Reflectance of stained fabric before washing) minus (the value of the Reflectance of stained fabric washed with H2 O2 and detergent alone minus the value of the Reflectance of stained fabric before washing).
The formulation of the detergent base used for the bleaching test is as follows: […]

[2] = Peracid generation from precursors (perhydrolysis yield); conditions: 40° C., [BPD] = 6.24 × 10^-4 M, [H2O2] = 6.24 × 10^-3 M
Description: The precursors described herein can be used to generate peroxycarbonic acid bleaches in basic aqueous solution containing a source of hydrogen peroxide and, optimally, may contain typical detergent ingredients. […] The hydrogen peroxide source is added just prior to addition of the precursor. Ten milliliter aliquots of solution are withdrawn from the beaker at regular intervals and are added to a 250 ml titration flask containing crushed ice (150 g), glacial acetic acid (30 ml) and 4% aqueous potassium iodide (5 ml). After development for ten minutes with occasional agitation, the iodine produced is titrated with standard sodium thiosulfate solution. Time zero is taken as the point of introduction of precursor into the peroxyide solution. Precursor perhydrolysis experiments are generally carried out for a maximum of 15 minutes.
Since hydrogen peroxide itself contributes to the total active oxygen in these titrations, controls or "blanks" are obtained by carrying out a perhydrolysis experiment in the absence of precursor. These hydrogen peroxide blanks are subtracted from the total active oxygen titration in the presence of bleach precursor to give the level of active oxygen produced by precursor perhydrolysis.
Peroxycarbonic acid generation is determined at pH 8, 9, and 10. Borax buffer is used for experiments at pH 9 and 10 while phosphate buffer is employed for experiments carried out at pH 8. Adjustment of the buffer systems at 40° C. to the exact pH is carried out with 1M hydrochloric acid or sodium hydroxide solution.

[3] = Biodegradability (statement, no test described); conditions: chelidamic acid moiety
[4] = Determination of calcium binding (Ca ion selective electrode titration); assay type: physicochemical; conditions: pH 10, 0.05 g/l solution, ionic strength 0.02-0.03M (NaCl), titrated with 0.02M CaCl2
Description: Calcium binding data was obtained at a pH of 10 by titrating 100 ml of 0.05 g/l precursor solution at an ionic strength of 0.02-0.03M (NaCl) with a 0.02M CaCl2 solution. A Radiometer calcium ion selective electrode was used to measure free Ca^++ ion concentration of the solutions. Data was corrected for dilution during each titration.

Binding Constants Log KCa [4] | SMILES | Bleaching Performance Δ R [1] | further results
– | O=C(Oc1cc(C(=O)O)nc(C(=O)O)c1)c1ccccc1.[Na].[Na] [BPD, Disodium, 4-Benzoyloxy-2,6-Pyridinedicarboxylic Acid] | > 6.0 | Perhydrolysis yields from BPD (peroxycarbonic acid yield as a percent of theoretical), 1 minute ([2]; pH 10, 1 minute): 91.35%; Perhydrolysis yields from BPD (peroxycarbonic acid yield as a percent of theoretical), 8 minutes ([2]; pH 10, 8 minutes): 17.63%; Perhydrolysis yields from BPD (peroxycarbonic acid yield as a percent of theoretical), 15 minutes ([2]; pH 10, 15 minutes): 0%
– | O=C(Oc1cc(C(=O)O)nc(C(=O)O)c1)c1cccc(CCl)c1 [CBPD, Disodium, 4-(3-Chloromethyl)benzoyloxy-2,6-Pyridinedicarboxylic Acid] | > 6.0 | –
– | C[N+](C)(C)CCOC(=O)Oc1cc(C(=O)O)nc(C(=O)O)c1 [CCPD, Disodium, 4-Choline Carbonate-2,6-Pyridinedicarboxylic Acid] | > 15.0 | –
5.70 | O=C(O)c1cc(O)cc(C(=O)O)n1 [Chelidamic Acid, 1,4-Dihydro-4-oxo-2,6-pyridine dicarboxylic acid] | – | biodegradability [3]: biodegradable
5.85 | O=P(O)(O)OP(=O)(O)OP(=O)(O)O [Sodium Tripolyphosphate] | – | –
